According to patent US9340590B2 (priority 2011, dated 2016):
Like-named read-outs stand apart in the source and are kept apart here. Positions of bridges follow the written chain, without caps; N, C: chain ends. Non-standard residues stand in square brackets, D forms with d. Residues, ends and D or L forms follow the SMILES beside them. Lys(Me2) = CN(C)CCCC[C@H](N)C(=O)O; Pra = C#CC[C@H](N)C(=O)O

Tests used:
Assay in all cases: cell-based
hNav1.7 [1] = target: T1, hNav1.7 (Homo sapiens, UniProt Q15858); conditions: Nav1.7 Use IC50
hNav1.5 [2] = target: T2, hNav1.5 (Homo sapiens, UniProt Q14524)
hNav1.7 [3] = target: T1, hNav1.7; format: cell-based
hNav1.5 [4] = target: T2, hNav1.5; conditions: IonWorks Quattro; clamped to −110 mV, depolarized to −10 mV, 5 min after compound; n=2; read-out: IWQ Use Nav1.5
hNav1.3 = hNav1.3 (Homo sapiens, UniProt Q9NY46); conditions: IonWorks Quattro; clamped to −110 mV, depolarized to −10 mV, 5 min after compound; n=2; read-out: IWQ Use Nav1.3
[5] = IonWorks Quattro, clamped to −110 mV, depolarized to −10 mV, 5 min after compound, n=2, read-out: IWQ Use Nav1.7

T2 sequence (Q14524 whole entry, looked up): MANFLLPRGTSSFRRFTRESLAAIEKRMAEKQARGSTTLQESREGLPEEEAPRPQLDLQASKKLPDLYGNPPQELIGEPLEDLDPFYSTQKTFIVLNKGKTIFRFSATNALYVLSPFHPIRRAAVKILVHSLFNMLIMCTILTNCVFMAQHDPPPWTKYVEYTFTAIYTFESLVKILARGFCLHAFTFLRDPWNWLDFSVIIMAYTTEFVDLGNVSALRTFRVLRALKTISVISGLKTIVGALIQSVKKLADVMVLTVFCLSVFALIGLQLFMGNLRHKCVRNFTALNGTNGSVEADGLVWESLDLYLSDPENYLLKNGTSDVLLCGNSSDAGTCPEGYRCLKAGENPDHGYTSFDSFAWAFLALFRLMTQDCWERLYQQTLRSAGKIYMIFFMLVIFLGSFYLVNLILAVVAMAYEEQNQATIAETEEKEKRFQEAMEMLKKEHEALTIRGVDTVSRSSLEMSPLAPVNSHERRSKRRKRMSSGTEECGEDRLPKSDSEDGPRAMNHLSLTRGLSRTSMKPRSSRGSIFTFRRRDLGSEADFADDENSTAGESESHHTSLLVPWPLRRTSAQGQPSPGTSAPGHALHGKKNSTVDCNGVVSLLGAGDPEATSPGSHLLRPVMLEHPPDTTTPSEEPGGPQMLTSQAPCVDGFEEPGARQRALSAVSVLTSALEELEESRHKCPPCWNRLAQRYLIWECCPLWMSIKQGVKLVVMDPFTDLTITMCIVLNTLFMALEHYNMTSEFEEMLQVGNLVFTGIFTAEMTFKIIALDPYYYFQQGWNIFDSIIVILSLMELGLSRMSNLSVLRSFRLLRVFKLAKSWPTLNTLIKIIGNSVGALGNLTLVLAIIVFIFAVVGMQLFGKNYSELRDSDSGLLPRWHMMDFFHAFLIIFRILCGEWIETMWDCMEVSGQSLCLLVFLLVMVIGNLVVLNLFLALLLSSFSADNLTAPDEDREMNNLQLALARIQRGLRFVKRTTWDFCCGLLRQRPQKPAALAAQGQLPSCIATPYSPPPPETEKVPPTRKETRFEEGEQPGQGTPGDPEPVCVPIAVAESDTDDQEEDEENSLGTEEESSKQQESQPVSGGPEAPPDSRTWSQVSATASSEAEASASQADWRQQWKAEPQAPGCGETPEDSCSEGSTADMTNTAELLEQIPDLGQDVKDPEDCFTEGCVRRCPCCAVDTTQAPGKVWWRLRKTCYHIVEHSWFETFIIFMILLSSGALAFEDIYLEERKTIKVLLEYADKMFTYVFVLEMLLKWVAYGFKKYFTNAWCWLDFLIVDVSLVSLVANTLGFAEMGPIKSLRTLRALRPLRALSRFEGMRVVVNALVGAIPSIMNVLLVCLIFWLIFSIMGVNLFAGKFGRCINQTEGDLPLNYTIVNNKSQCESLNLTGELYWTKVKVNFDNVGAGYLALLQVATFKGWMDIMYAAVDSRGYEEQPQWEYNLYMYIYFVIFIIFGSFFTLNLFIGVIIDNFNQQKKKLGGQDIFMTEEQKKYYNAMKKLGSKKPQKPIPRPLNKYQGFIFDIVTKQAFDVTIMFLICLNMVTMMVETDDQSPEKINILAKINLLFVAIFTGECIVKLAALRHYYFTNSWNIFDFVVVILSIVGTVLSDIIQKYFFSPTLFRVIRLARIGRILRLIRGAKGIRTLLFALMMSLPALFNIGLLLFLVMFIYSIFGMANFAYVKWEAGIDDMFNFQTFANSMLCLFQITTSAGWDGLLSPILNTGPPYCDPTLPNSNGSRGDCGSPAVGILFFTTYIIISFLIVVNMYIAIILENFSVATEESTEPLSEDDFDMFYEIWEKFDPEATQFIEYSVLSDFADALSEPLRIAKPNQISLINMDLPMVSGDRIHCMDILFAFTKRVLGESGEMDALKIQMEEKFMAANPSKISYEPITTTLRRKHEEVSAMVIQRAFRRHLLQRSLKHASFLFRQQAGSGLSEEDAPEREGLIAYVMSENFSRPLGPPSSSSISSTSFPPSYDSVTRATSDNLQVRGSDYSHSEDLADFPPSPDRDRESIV
Sequence of hNav1.3 (Q9NY46 whole entry, looked up): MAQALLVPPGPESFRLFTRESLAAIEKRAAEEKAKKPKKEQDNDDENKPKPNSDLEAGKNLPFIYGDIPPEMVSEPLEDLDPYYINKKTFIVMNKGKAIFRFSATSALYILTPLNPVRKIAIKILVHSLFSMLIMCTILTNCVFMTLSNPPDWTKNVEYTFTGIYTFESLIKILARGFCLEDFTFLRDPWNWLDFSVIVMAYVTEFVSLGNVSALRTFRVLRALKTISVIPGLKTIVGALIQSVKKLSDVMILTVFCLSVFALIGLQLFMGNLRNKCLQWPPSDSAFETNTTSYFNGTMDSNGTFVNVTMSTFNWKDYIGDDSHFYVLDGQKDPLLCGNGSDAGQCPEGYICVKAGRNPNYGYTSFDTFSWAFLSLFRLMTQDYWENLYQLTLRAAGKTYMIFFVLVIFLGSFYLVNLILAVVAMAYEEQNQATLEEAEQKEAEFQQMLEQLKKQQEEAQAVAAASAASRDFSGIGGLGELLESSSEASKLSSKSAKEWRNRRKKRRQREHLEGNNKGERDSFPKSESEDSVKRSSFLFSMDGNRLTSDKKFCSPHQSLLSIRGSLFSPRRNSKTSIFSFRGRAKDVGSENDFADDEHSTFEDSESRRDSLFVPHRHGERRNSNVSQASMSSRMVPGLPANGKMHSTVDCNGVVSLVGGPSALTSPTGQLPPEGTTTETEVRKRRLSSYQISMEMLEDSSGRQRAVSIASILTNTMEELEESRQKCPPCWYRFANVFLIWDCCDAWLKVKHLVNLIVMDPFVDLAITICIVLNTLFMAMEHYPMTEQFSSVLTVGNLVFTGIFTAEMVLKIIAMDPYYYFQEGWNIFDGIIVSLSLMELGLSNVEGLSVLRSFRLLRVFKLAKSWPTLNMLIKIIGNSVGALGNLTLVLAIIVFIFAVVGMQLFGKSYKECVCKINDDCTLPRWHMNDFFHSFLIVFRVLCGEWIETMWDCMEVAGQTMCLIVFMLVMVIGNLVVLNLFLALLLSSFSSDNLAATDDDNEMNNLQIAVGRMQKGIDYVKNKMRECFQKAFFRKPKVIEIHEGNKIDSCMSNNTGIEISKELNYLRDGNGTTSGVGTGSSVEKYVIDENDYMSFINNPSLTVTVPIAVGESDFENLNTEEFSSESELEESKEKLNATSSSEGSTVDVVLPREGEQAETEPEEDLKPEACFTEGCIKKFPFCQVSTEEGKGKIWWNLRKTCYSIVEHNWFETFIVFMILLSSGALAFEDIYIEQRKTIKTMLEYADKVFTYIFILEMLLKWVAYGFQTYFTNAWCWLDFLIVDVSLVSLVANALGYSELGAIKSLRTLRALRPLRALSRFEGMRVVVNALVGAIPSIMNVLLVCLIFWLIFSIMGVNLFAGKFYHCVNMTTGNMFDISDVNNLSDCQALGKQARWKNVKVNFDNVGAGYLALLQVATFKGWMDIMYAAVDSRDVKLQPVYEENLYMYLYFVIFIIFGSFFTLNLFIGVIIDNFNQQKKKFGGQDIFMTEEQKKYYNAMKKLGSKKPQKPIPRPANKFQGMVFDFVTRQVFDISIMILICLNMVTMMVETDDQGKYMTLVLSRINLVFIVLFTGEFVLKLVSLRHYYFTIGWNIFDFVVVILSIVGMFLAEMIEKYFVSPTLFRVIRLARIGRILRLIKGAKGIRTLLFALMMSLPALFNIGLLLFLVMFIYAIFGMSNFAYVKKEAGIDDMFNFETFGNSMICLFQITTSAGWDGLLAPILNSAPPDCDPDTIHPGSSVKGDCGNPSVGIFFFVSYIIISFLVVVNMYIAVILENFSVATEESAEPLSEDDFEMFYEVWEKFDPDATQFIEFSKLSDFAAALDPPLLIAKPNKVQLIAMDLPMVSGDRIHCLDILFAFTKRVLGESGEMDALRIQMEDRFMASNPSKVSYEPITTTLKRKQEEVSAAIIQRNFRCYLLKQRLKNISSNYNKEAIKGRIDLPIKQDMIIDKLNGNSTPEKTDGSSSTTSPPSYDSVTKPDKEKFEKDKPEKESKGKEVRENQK

Compound C#CC[C@@H]1NC(=O)[C@H](CC(=O)O)NC(=O)[C@@H]2CCCN2C(=O)[C@H]([C@@H](C)CC)NC(=O)[C@@H]2CSSC[C@@H]3NC(=O)[C@H](C(C)C)NC(=O)[C@H](CC(C)C)NC(=O)[C@H](CC(N)=O)NC(=O)[C@@H]4CCCN4C(=O)[C@H](CCCNC(=N)N)NC(=O)[C@H](CSSC[C@H](NC(=O)[C@@H](N)CC(=O)O)C(=O)N[C@@H](CC(C)C)C(=O)NCC(=O)N[C@@H](C)C(=O)N[C@@H](CC(C)C)C(=O)N[C@@H](CCCNC(=N)N)C(=O)N[C@@H](CCCCN)C(=O)N2)NC(=O)[C@H](CSSC[C@@H](C(=O)N[C@@H](CCCCN)C(=O)N[C@@H](Cc2ccc(O)cc2)C(=O)N[C@H](C(=O)N[C@@H](Cc2ccccc2)C(N)=O)C(C)C)NC(=O)[C@H](Cc2c[nH]c4ccccc24)NC(=O)[C@H](CCCNC(=N)N)NC(=O)[C@H](Cc2c[nH]cn2)NC(=O)[C@H](CC(C)C)NC(=O)[C@H](CCCNC(=N)N)NC(=O)[C@H](CO)NC3=O)NC(=O)[C@H](CCCCN)NC(=O)[C@H](CC(=O)O)NC1=O [[Ala5;Leu6,26;Pra13;Arg28]GpTx-1(1-34)] (H-DCLGALRKCIPD[Pra]DKCCRPNLVCSRLHRWCKYVF-NH2; disulfide 2-17, 9-23, 16-30) has an IC50 (hNav1.7 [1]) of 9 nM and an IC50 (hNav1.5 [2]) of over 10000 nM.
CC[C@H](C)[C@@H]1NC(=O)[C@@H]2CSSC[C@@H]3NC(=O)[C@H](C(C)C)NC(=O)[C@H](CC(C)C)NC(=O)[C@H](CC(N)=O)NC(=O)[C@@H]4CCCN4C(=O)[C@H](CCCCN(C)C)NC(=O)[C@H](CSSC[C@H](NC(=O)[C@@H](N)CC(=O)O)C(=O)N[C@@H](CC(C)C)C(=O)NCC(=O)N[C@@H](Cc4ccccc4)C(=O)N[C@@H](CCSC)C(=O)N[C@@H](CCCNC(=N)N)C(=O)N[C@@H](CCCCN)C(=O)N2)NC(=O)[C@H](CSSC[C@@H](C(=O)N[C@@H](CCCCN)C(=O)N[C@@H](Cc2ccc(O)cc2)C(=O)N[C@H](C(=O)N[C@@H](Cc2ccccc2)C(N)=O)C(C)C)NC(=O)[C@H](Cc2c[nH]c4ccccc24)NC(=O)[C@H](CCCCN)NC(=O)[C@H](Cc2cnc[nH]2)NC(=O)[C@H]([C@@H](C)O)NC(=O)[C@H](CCCNC(=N)N)NC(=O)[C@H](CO)NC3=O)NC(=O)[C@H](CCCCN)NC(=O)[C@H](CC(=O)O)NC(=O)[C@H](CC(N)=O)NC(=O)[C@H](CC(=O)O)NC(=O)[C@@H]2CCCN2C1=O [[K(Me2)18]GpTx-1(1-34)] (H-DCLGFMRKCIPDNDKCC[Lys(Me2)]PNLVCSRTHKWCKYVF-NH2; disulfide 2-17, 9-23, 16-30) gave an IC50 (hNav1.5 [2]) of 10000 nM.
CC[C@H](C)[C@@H]1NC(=O)[C@@H]2CSSC[C@@H]3NC(=O)[C@H](C(C)C)NC(=O)[C@H](CC(C)C)NC(=O)[C@H](CC(N)=O)NC(=O)[C@@H]4CCCN4C(=O)[C@H](CCCNC(=N)N)NC(=O)[C@H](CSSC[C@H](NC(=O)[C@@H](N)CC(=O)O)C(=O)N[C@@H](CC(C)C)C(=O)N[C@@H](CCCNC(=N)N)C(=O)N[C@@H](Cc4ccccc4)C(=O)N[C@@H](CCSC)C(=O)N[C@@H](CCCNC(=N)N)C(=O)N[C@@H](CCCCN)C(=O)N2)NC(=O)[C@H](CSSC[C@@H](C(=O)N[C@@H](CCCCN)C(=O)N[C@@H](Cc2ccc(O)cc2)C(=O)N[C@H](C(=O)N[C@@H](Cc2ccccc2)C(N)=O)C(C)C)NC(=O)[C@H](Cc2c[nH]c4ccccc24)NC(=O)[C@H](CCCCN)NC(=O)[C@H](Cc2cnc[nH]2)NC(=O)[C@H]([C@@H](C)O)NC(=O)[C@H](CCCNC(=N)N)NC(=O)[C@H](CO)NC3=O)NC(=O)[C@H](CCCCN)NC(=O)[C@H](CC(=O)O)NC(=O)[C@H](CC(N)=O)NC(=O)[C@H](CC(=O)O)NC(=O)[C@@H]2CCCN2C1=O [SEQ ID NO: 63] (H-DCLRFMRKCIPDNDKCCRPNLVCSRTHKWCKYVF-NH2; disulfide 2-17, 9-23, 16-30) showed an IC50 (hNav1.7 [3]) of 210 nM, an IC50 (hNav1.5 [4]) of 20100 nM and an IC50 (hNav1.3) of 230 nM. For the same compound, the IC50 (hNav1.5 [2]) was 5000 nM.
For CC[C@H](C)[C@@H]1NC(=O)[C@@H]2CSSC[C@@H]3NC(=O)[C@H](C(C)C)NC(=O)[C@H](CC(C)C)NC(=O)[C@H](CC(N)=O)NC(=O)[C@@H]4CCCN4C(=O)[C@H](CCCNC(=N)N)NC(=O)[C@H](CSSC[C@H](N)C(=O)N[C@@H](CC(C)C)C(=O)NCC(=O)N[C@@H](Cc4ccccc4)C(=O)N[C@@H](CCSC)C(=O)N[C@@H](CCCNC(=N)N)C(=O)N[C@@H](CCCCN)C(=O)N2)NC(=O)[C@H](CSSC[C@@H](C(=O)N[C@@H](CCCCN)C(=O)N[C@@H](Cc2ccc(O)cc2)C(=O)N[C@H](C(=O)N[C@@H](Cc2ccccc2)C(N)=O)C(C)C)NC(=O)[C@H](Cc2c[nH]c4ccccc24)NC(=O)[C@H](CCCCN)NC(=O)[C@H](Cc2c[nH]cn2)NC(=O)[C@H]([C@@H](C)O)NC(=O)[C@H](CCCNC(=N)N)NC(=O)[C@H](CO)NC3=O)NC(=O)[C@H](CCCCN)NC(=O)[C@H](CC(=O)O)NC(=O)[C@H](CC(N)=O)NC(=O)[C@H](CC(=O)O)NC(=O)[C@@H]2CCCN2C1=O [SEQ ID NO: 108] (H-CLGFMRKCIPDNDKCCRPNLVCSRTHKWCKYVF-NH2; disulfide 1-16, 8-22, 15-29), the IC50 (hNav1.7 [3]; [5]) was 70 nM and the IC50 (hNav1.5 [2]; read-out: Nav1.5 Use IC50) was 4940 nM.
Work on CC[C@H](C)[C@@H]1NC(=O)[C@@H]2CSSC[C@@H]3NC(=O)[C@H](C(C)C)NC(=O)[C@H](CC(C)C)NC(=O)[C@H](CC(N)=O)NC(=O)[C@@H]4CCCN4C(=O)[C@H](CCCNC(=N)N)NC(=O)[C@H](CSSC[C@H](NC(=O)[C@@H](N)CC(=O)O)C(=O)N[C@@H](CC(C)C)C(=O)NCC(=O)N[C@@H](C(C)C)C(=O)N[C@@H](CCSC)C(=O)N[C@@H](CCCNC(=N)N)C(=O)N[C@@H](CCCCN)C(=O)N2)NC(=O)[C@H](CSSC[C@@H](C(=O)N[C@@H](CCCCN)C(=O)N[C@@H](Cc2ccc(O)cc2)C(=O)N[C@H](C(=O)N[C@@H](Cc2ccccc2)C(N)=O)C(C)C)NC(=O)[C@H](Cc2c[nH]c4ccccc24)NC(=O)[C@H](CCCCN)NC(=O)[C@H](Cc2cnc[nH]2)NC(=O)[C@H]([C@@H](C)O)NC(=O)[C@H](CCCNC(=N)N)NC(=O)[C@H](CO)NC3=O)NC(=O)[C@H](CCCCN)NC(=O)[C@H](CC(=O)O)NC(=O)[C@H](CC(N)=O)NC(=O)[C@H](CC(=O)O)NC(=O)[C@@H]2CCCN2C1=O [SEQ ID NO: 272] (H-DCLGVMRKCIPDNDKCCRPNLVCSRTHKWCKYVF-NH2; disulfide 2-17, 9-23, 16-30) yielded an IC50 (hNav1.7 [3]; [5]) of 710 nM, an IC50 (hNav1.5 [4]) of 13200 nM and an IC50 (hNav1.3) of 1030 nM. The IC50 (hNav1.7 [1]) was 18 nM.
CC[C@H](C)[C@@H]1NC(=O)[C@@H]2CSSC[C@@H]3NC(=O)[C@H](C(C)C)NC(=O)[C@H](CC(C)C)NC(=O)[C@H](CC(N)=O)NC(=O)[C@@H]4CCCN4C(=O)[C@H](CCCNC(=N)N)NC(=O)[C@H](CSSC[C@H](NC(=O)[C@@H](N)CC(=O)O)C(=O)N[C@@H](CC(C)C)C(=O)N[C@@H](CCCCN)C(=O)N[C@@H](Cc4ccccc4)C(=O)N[C@@H](CCSC)C(=O)N[C@@H](CCCNC(=N)N)C(=O)N[C@@H](CCCCN)C(=O)N2)NC(=O)[C@H](CSSC[C@@H](C(=O)N[C@@H](CCCCN)C(=O)N[C@@H](Cc2ccc(O)cc2)C(=O)N[C@H](C(=O)N[C@@H](Cc2ccccc2)C(N)=O)C(C)C)NC(=O)[C@H](Cc2c[nH]c4ccccc24)NC(=O)[C@H](CCCCN)NC(=O)[C@H](Cc2cnc[nH]2)NC(=O)[C@H]([C@@H](C)O)NC(=O)[C@H](CCCNC(=N)N)NC(=O)[C@H](CO)NC3=O)NC(=O)[C@H](CCCCN)NC(=O)[C@H](CC(=O)O)NC(=O)[C@H](CC(N)=O)NC(=O)[C@H](CC(=O)O)NC(=O)[C@@H]2CCCN2C1=O [SEQ ID NO: 39] (H-DCLKFMRKCIPDNDKCCRPNLVCSRTHKWCKYVF-NH2; disulfide 2-17, 9-23, 16-30) showed an IC50 (hNav1.7 [3]) of 200 nM, an IC50 (hNav1.5 [4]) of 9820 nM and an IC50 (hNav1.3) of 180 nM. For the same compound, the IC50 (hNav1.5 [2]) was 10600 nM.
CC[C@H](C)[C@@H]1NC(=O)CNC(=O)[C@H](CC(C)C)NC(=O)[C@@H](NC(=O)[C@@H](N)CC(=O)O)CSSC[C@@H]2NC(=O)[C@@H]3CSSC[C@@H](C(=O)N[C@@H](CCCCN)C(=O)N[C@@H](Cc4ccc(O)cc4)C(=O)N[C@H](C(=O)N[C@@H](Cc4ccccc4)C(N)=O)C(C)C)NC(=O)[C@H](Cc4c[nH]c5ccccc45)NC(=O)[C@H](CCCCN)NC(=O)[C@H](Cc4cnc[nH]4)NC(=O)[C@H]([C@@H](C)O)NC(=O)[C@H](CCCNC(=N)N)NC(=O)[C@H](CO)NC(=O)[C@H](CSSC[C@H](NC(=O)[C@H](CCCCN)NC(=O)[C@H](CCCNC(=N)N)NC(=O)[C@H](CCSC)NC1=O)C(=O)N[C@@H]([C@@H](C)CC)C(=O)N1CCC[C@H]1C(=O)N[C@@H](CC(=O)O)C(=O)N[C@@H](CC(N)=O)C(=O)N[C@@H](CC(=O)O)C(=O)N[C@@H](CCCCN)C(=O)N3)NC(=O)[C@H](C(C)C)NC(=O)[C@H](CC(C)C)NC(=O)[C@H](CC(N)=O)NC(=O)[C@@H]1CCCN1C(=O)[C@H](CCCNC(=N)N)NC2=O [SEQ ID NO: 88] (H-DCLGIMRKCIPDNDKCCRPNLVCSRTHKWCKYVF-NH2; disulfide 2-17, 9-23, 16-30) gave an IC50 (hNav1.7 [3]; [5]) of 360 nM, an IC50 (hNav1.5 [4]) of 6650 nM and an IC50 (hNav1.3) of 620 nM. It also gave an IC50 (hNav1.7 [1]) of 2 nM.
